Assay results as given in US11191754B2, “Inhibitors of nucleotidyl transferases and uses in herpes and hepatitis viral infections therefor” (Saint Louis University, priority 2015, dated 2021).

Target: T1, human RNaseH1 (Homo sapiens, UniProt O60930)
T1 construct: made in house; host or cells: E. coli
T1 sequence (O60930 1-286): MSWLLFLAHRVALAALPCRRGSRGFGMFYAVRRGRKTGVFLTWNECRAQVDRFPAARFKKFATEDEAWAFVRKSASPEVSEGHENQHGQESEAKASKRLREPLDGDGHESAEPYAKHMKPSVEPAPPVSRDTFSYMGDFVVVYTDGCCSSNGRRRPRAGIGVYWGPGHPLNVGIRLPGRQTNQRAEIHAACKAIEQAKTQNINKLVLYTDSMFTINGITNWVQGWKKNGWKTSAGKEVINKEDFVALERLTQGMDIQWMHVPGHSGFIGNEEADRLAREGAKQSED
Experiment: Human RNaseH1 oligonucleotide-directed RNA cleavage assay
Type: biochemical
Conditions: recombinant human RNaseH1
Method: Recombinant HBV RNaseH and human RNaseH1 were expressed in E. coli and partially purified by nickel-affinity chromatography as previously described in Tavis, et al. (2013). The enriched extracts were dialyzed into 50 mM HEPES pH 7.3, 300 mM NaCl, 20% glycerol, and 5 mM DTT and stored in liquid nitrogen.
RNaseH activity was measured using an oligonucleotide-directed RNA cleavage assay as previously described in Hu, et al., Tavis, et al., and Cai, et al. (2013; 2013; and 2014, respectfully). Briefly, 6 μL protein extract was mixed on ice with an internally ^32P-labeled 264 nt RNA derived from the Duck Hepatitis B Virus genome (DRF+ RNA) plus 3 μg oligonucleotide D2507- or its inverse-complement oligonucleotide D2526+ as a negative control. This mixture was incubated with test compounds in 50 mM Tris pH 8.0, 190 mM NaCl, 5 mM MgCl2, 3.5 mM DTT, 0.05% NP40, 6% glycerol, and 1% DMSO at 42° C. for 90 minutes. Cleavage products were resolved by denaturing polyacrylamide gel electrophoresis, detected by autoradiography, and quantified using ImageJ. Non-specific background values were determined from the incorrect oligonucleotide negative control lane and subtracted from all experimental values. IC50 values were then calculated with GraphPad Prism using three-parameter log(inhibitor) vs. response non-linear curve fitting with the curve minimum set to zero to reflect background subtraction.

Which “Anti-human RNase H1” value does the source give for `Cc1cc(CC(C)CC(C)(C)C)n(O)c(=O)c1` (stereo not shown) [#191, Piroctone olamine] here?
Its value is “did not inhibit”.
